PubChem BioAssay (NCI)
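Interpolation was linear, between the two tested concentrations surrounding the appropriate level; five concentrations were tested over 48 hours in 96-well plates. Here, GI50 denotes the concentration required for 50% inhibition of growth. Definition used: TGI = concentration required for complete inhibition of growth.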

Assays:
Test in all cases: NCI-60 cell line screen, 48 h
[1] = tested on: 786-0 renal
[2] = tested on: A549 NSCLC
[3] = tested on: CAKI-1 renal
[4] = tested on: CCRF-CEM leukemia
[5] = tested on: COLO 205 colon
[6] = tested on: DLD-1 colon
[7] = tested on: DMS 114 small cell lung
[8] = tested on: EKVX NSCLC
[9] = tested on: HCC-2998 colon
[10] = tested on: HCT-116 colon
[11] = tested on: HL-60(TB) leukemia
[12] = tested on: HOP-62 NSCLC
[13] = tested on: HOP-92 NSCLC
[14] = tested on: HT29 colon
[15] = tested on: IGROV1 ovarian
[16] = tested on: K-562 leukemia
[17] = tested on: KM12 colon
[18] = tested on: KM20L2 colon
[19] = tested on: LOX IMVI melanoma
[20] = tested on: LXFL 529 NSCLC
[21] = tested on: M14 melanoma
[22] = tested on: M19-MEL melanoma
[23] = tested on: MALME-3M melanoma
[24] = tested on: MOLT-4 leukemia
[25] = tested on: NCI-H226 lung
[26] = tested on: NCI-H522 lung
[27] = tested on: OVCAR-3 ovarian
[28] = tested on: OVCAR-4 ovarian
[29] = tested on: OVCAR-5 ovarian
[30] = tested on: OVCAR-8 ovarian
[31] = tested on: RPMI-8226 leukemia
[32] = tested on: SF-268 CNS
[33] = tested on: SK-MEL-2 melanoma
[34] = tested on: SK-MEL-5 melanoma
[35] = tested on: SK-OV-3 ovarian
[36] = tested on: SN12C renal
[37] = tested on: SR leukemia
[38] = tested on: SW-620 colon
[39] = tested on: TK-10 renal
[40] = tested on: UACC-257 melanoma
[41] = tested on: UACC-62 melanoma
[42] = tested on: UO-31 renal
[43] = tested on: XF 498 CNS
[44] = tested on: ACHN renal
[45] = tested on: DMS 273 small cell lung
[46] = tested on: HCT-15 colon
[47] = tested on: HOP-18 NSCLC
[48] = tested on: NCI-H23 lung
[49] = tested on: NCI-H460 lung
[50] = tested on: RXF 393 renal
[51] = tested on: RXF-631 renal
[52] = tested on: SF-295 CNS
[53] = tested on: SF-539 CNS
[54] = tested on: SK-MEL-28 melanoma
[55] = tested on: SNB-19 CNS
[56] = tested on: U251 CNS
[57] = tested on: SNB-75 CNS
[58] = tested on: A498 renal
[59] = tested on: SNB-78 CNS

SMILES: O=C1c2c(nc3ccccc3c2-c2ccccc2)CN1Nc1ccccc1
- TGI [1]: > 100 µM
- TGI [2]: > 100 µM
- TGI [3]: > 100 µM
- TGI [4]: > 100 µM
- TGI [5]: > 100 µM
- TGI [6]: > 100 µM
- TGI [7]: > 100 µM
- TGI [8]: > 100 µM
- TGI [9]: > 100 µM
- TGI [10]: > 100 µM
- TGI [11]: > 100 µM
- TGI [12]: > 100 µM
- TGI [13]: > 100 µM
- TGI [14]: > 100 µM
- TGI [15]: > 100 µM
- TGI [16]: > 100 µM
- TGI [17]: > 100 µM
- TGI [18]: > 100 µM
- TGI [19]: > 100 µM
- TGI [20]: > 100 µM
- TGI [21]: > 100 µM
- TGI [22]: > 100 µM
- TGI [23]: > 100 µM
- TGI [24]: > 100 µM
- TGI [25]: > 100 µM
- TGI [26]: > 100 µM
- TGI [27]: > 100 µM
- TGI [28]: > 100 µM
- TGI [29]: > 100 µM
- TGI [30]: > 100 µM
- TGI [31]: > 100 µM
- TGI [32]: > 100 µM
- TGI [33]: > 100 µM
- TGI [34]: > 100 µM
- TGI [35]: > 100 µM
- TGI [36]: > 100 µM
- TGI [37]: > 100 µM
- TGI [38]: > 100 µM
- TGI [39]: > 100 µM
- TGI [40]: > 100 µM
- TGI [41]: > 100 µM
- TGI [42]: > 100 µM
- TGI [43]: > 100 µM

SMILES: N#CN1CCC=C(c2cc3ccccc3[nH]2)C1
- TGI [1]: > 448 µM
- TGI [2]: > 448 µM
- TGI [44]: > 448 µM
- TGI [3]: > 448 µM
- TGI [4]: > 448 µM
- TGI [5]: > 448 µM
- TGI [6]: > 448 µM
- TGI [45]: > 448 µM
- TGI [8]: > 448 µM
- TGI [9]: > 448 µM
- TGI [10]: > 448 µM
- TGI [46]: > 448 µM
- TGI [11]: > 448 µM
- TGI [47]: > 448 µM
- TGI [12]: > 448 µM
- TGI [13]: 427 µM
- TGI [14]: > 448 µM
- TGI [15]: > 448 µM
- TGI [16]: > 448 µM
- TGI [17]: > 448 µM
- TGI [18]: > 448 µM
- TGI [19]: > 448 µM
- TGI [20]: > 448 µM
- TGI [22]: > 448 µM
- TGI [23]: > 448 µM
- TGI [24]: > 448 µM
- TGI [25]: > 448 µM
- TGI [48]: > 448 µM
- TGI [49]: > 448 µM
- TGI [26]: 298 µM
- TGI [27]: 339 µM
- TGI [29]: > 448 µM
- TGI [30]: > 448 µM
- TGI [31]: > 448 µM
- TGI [50]: > 448 µM
- TGI [51]: > 448 µM
- TGI [32]: > 448 µM
- TGI [52]: > 448 µM
- TGI [53]: > 448 µM
- TGI [33]: > 448 µM
- TGI [54]: > 448 µM
- TGI [34]: > 448 µM
- TGI [35]: > 448 µM
- TGI [36]: > 448 µM
- TGI [55]: > 448 µM
- TGI [37]: > 448 µM
- TGI [38]: > 448 µM
- TGI [39]: > 448 µM
- TGI [56]: > 448 µM
- TGI [40]: > 448 µM
- TGI [41]: > 448 µM

SMILES: O=c1n(CCCCn2c(=O)n(CC3CS3)c3ccccc32)c2ccccc2n1CC1CS1 (stereo unspecified)
- TGI [44]: 77.6 µM
- TGI [3]: 35.5 µM
- TGI [4]: 81.4 µM
- TGI [5]: 35.6 µM
- TGI [45]: 42.7 µM
- TGI [8]: 76.2 µM
- TGI [9]: 35.9 µM
- TGI [10]: 39.7 µM
- TGI [46]: 33.2 µM
- TGI [11]: 6.34 µM
- TGI [12]: 43.9 µM
- TGI [13]: 86.5 µM
- TGI [15]: 32 µM
- TGI [16]: 37.5 µM
- TGI [17]: 24.2 µM
- TGI [19]: 14.4 µM
- TGI [20]: 33.1 µM
- TGI [21]: 23.2 µM
- TGI [22]: 45.8 µM
- TGI [23]: 22.8 µM
- TGI [24]: 5.82 µM
- TGI [26]: 31.6 µM
- TGI [27]: 29.4 µM
- TGI [28]: 34 µM
- TGI [31]: 30.3 µM
- TGI [32]: > 100 µM
- TGI [33]: 29 µM
- TGI [35]: > 100 µM
- TGI [36]: 36.5 µM
- TGI [57]: 61.4 µM
- TGI [37]: 21.5 µM
- TGI [38]: 39.8 µM
- TGI [43]: 20.6 µM

SMILES: C[CH2][Sn]([Cl])([Cl])[CH2]C
- GI50 [1]: 28.9 µM
- TGI [1]: > 56 µM
- GI50 [58]: 23.4 µM
- TGI [58]: 43.7 µM
- GI50 [2]: > 100 µM
- TGI [2]: > 100 µM
- GI50 [44]: 24.1 µM
- TGI [44]: 58.5 µM
- GI50 [3]: 8.91 µM
- TGI [3]: 25.8 µM
- GI50 [4]: 9.5 µM
- TGI [4]: 39.9 µM
- GI50 [5]: 19.1 µM
- TGI [5]: 34.8 µM
- GI50 [6]: 36 µM
- TGI [6]: > 100 µM
- GI50 [7]: 16.2 µM
- TGI [7]: 31.4 µM
- GI50 [45]: > 91.2 µM
- TGI [45]: > 100 µM
- GI50 [8]: > 65.6 µM
- TGI [8]: > 100 µM
- GI50 [9]: > 64.9 µM
- TGI [9]: > 100 µM
- GI50 [10]: > 63.4 µM
- TGI [10]: > 100 µM
- GI50 [46]: > 43.2 µM
- TGI [46]: > 60.9 µM
- GI50 [11]: > 75.9 µM
- TGI [11]: > 100 µM
- GI50 [47]: 27 µM
- TGI [47]: 55.4 µM
- GI50 [12]: > 100 µM
- TGI [12]: > 100 µM
- GI50 [13]: 19.7 µM
- TGI [13]: 36.2 µM
- GI50 [14]: 55.2 µM
- TGI [14]: > 100 µM
- GI50 [15]: > 100 µM
- TGI [15]: > 100 µM
- GI50 [16]: 18.6 µM
- TGI [16]: > 69 µM
- GI50 [17]: > 100 µM
- TGI [17]: > 100 µM
- GI50 [18]: 71.4 µM
- TGI [18]: > 100 µM
- GI50 [19]: 17.5 µM
- TGI [19]: 33.1 µM
- GI50 [20]: 12.5 µM
- TGI [20]: 25.2 µM
- GI50 [21]: 24.1 µM
- TGI [21]: 57.7 µM
- GI50 [22]: 26 µM
- TGI [22]: > 67.2 µM
- GI50 [23]: 15.8 µM
- TGI [23]: 30.3 µM
- GI50 [24]: 29 µM
- TGI [24]: > 94.5 µM
- GI50 [25]: 19.9 µM
- TGI [25]: 42.6 µM
- GI50 [48]: 19.9 µM
- TGI [48]: 41.4 µM
- GI50 [49]: > 64.3 µM
- TGI [49]: > 100 µM
- GI50 [26]: 1.16 µM
- TGI [26]: 2.67 µM
- GI50 [27]: 98 µM
- TGI [27]: > 100 µM
- GI50 [28]: > 100 µM
- TGI [28]: > 100 µM
- GI50 [29]: > 100 µM
- TGI [29]: > 100 µM
- GI50 [30]: > 100 µM
- TGI [30]: > 100 µM
- GI50 [31]: 17.1 µM
- TGI [31]: 48.3 µM
- GI50 [50]: 17.5 µM
- TGI [50]: 32.7 µM
- GI50 [32]: 29.7 µM
- TGI [32]: 79.1 µM
- GI50 [52]: > 75 µM
- TGI [52]: > 100 µM
- GI50 [53]: 40.1 µM
- TGI [53]: > 100 µM
- GI50 [33]: 17 µM
- TGI [33]: 37.4 µM
- GI50 [54]: 19.8 µM
- TGI [54]: 36.3 µM
- GI50 [34]: 45.5 µM
- TGI [34]: > 100 µM
- GI50 [35]: > 100 µM
- TGI [35]: > 100 µM
- GI50 [36]: 35.1 µM
- TGI [36]: > 78.6 µM
- GI50 [55]: 39.5 µM
- TGI [55]: > 91.9 µM
- GI50 [57]: 24.9 µM
- TGI [57]: > 61.7 µM
- GI50 [59]: 20.3 µM
- TGI [59]: 46.4 µM
- GI50 [37]: 25.3 µM
- TGI [37]: > 100 µM
- GI50 [38]: 20.8 µM
- TGI [38]: 39.8 µM
- GI50 [39]: 18.3 µM
- TGI [39]: 32.4 µM
- GI50 [56]: 27.4 µM
- TGI [56]: > 59.1 µM
- GI50 [40]: 18.4 µM
- TGI [40]: 35 µM
- GI50 [41]: 22 µM
- TGI [41]: 47.8 µM
- GI50 [42]: 97.8 µM
- TGI [42]: > 100 µM
